One experiment has as its system DSS-induced colitis. The format is in vivo. As to the method:
To further examine the effect of antibiotic and a BSC on ulcerative colitis, the DSS model described supra was used with the addition of arms evaluating vancomycin as the sole antibiotic. In this experiment, three-week-old male C57B1/6 mice, 15 per group (9 in the Naïve control group), were treated according to the Table 2.
Either vancomycin (Groups 5 and 6) or an antibiotic mixture (Groups 7 and 8) was administered to mice in their drinking water prior to receiving treatment to evaluate the effect on BSC efficacy. Mice were dosed by oral gavage with either PBS (Groups 2, 5, and 7) or BSC (Groups 6 and 8) three times per week starting on Day 9 and continuing through the end of the study (Day 38). Group 4 was dosed with a BSC three times per week starting on Day 0. On days 28-32, mice were exposed to 2% DSS in their drinking water (Groups 2-8) and observed until Day 38. Periodic measurements included body weight and clinical scores. On Day 38, animals were euthanized and features of the colon were evaluated including weight, length, and gross pathology. Colon samples were prepared for histopathology and scored by a pathologist blinded to treatment group and the nature of the Test Item.

The next experiment concerns TNBS-induced colitis. Briefly: TNBS model of colitis with and without broad-spectrum antibiotic or vancomycin pretreatment (Example 5). The format is in vivo, Balb/c mice. As to the method:
Additional experiments were carried out using the TNBS model (described supra) using a BSC in combination with an antibiotic. In these experiments, three-week-old male Balb/c mice, 24 per group (9 in the naïve control group), were treated according to Table 4.
Either vancomycin (Groups 5 and 6) or an antibiotic mixture (Groups 7 and 8) was administered to mice in their drinking water prior to receiving treatment to evaluate the effect on BSC efficacy (Groups 5-8). Mice were dosed by oral gavage with either PBS (Groups 2, 5, and 7) or BSC (Groups 6 and 8) three times per week starting on Day 7 and continuing through the end of the study (Day 35). Mice in group 4 received BSC three times per week by oral gavage starting on Day 0. On day 28, mice were anesthetized with isoflurane and received intracolonic 2% TNBS (Groups 2-8). Periodic measurements included body weight and clinical scores. On Day 35, animals were euthanized and gross pathology was evaluated. Colon samples were prepared for histopathology and scored by a pathologist blinded to treatment group and the nature of the Test Item.

Where [1] appears, read: vs Negative Control (Group 2), Day 38.

`CN[C@H](CC(C)C)C(=O)N[C@H]1C(=O)N[C@@H](CC(N)=O)C(=O)N[C@H]2C(=O)N[C@H]3C(=O)N[C@H](C(=O)N[C@H](C(=O)O)c4cc(O)cc(O)c4-c4cc3ccc4O)[C@H](O)c3ccc(c(Cl)c3)Oc3cc2cc(c3O[C@@H]2O[C@H](CO)[C@@H](O)[C@H](O)[C@H]2O[C@H]2C[C@](C)(N)[C@H](O)[C@H](C)O2)Oc2ccc(cc2Cl)[C@H]1O` [Vancomycin, vancomycin]: the “colon pathology (gross pathology and histopathology scores)” value in the experiment with DSS-induced colitis (compared to naïve mice) was “worsening in colon pathology”. In the experiment on DSS-induced colitis (vs Negative Control), the “protection against DSS-induced disease / pathology” value is reported as “significant protection”. Moreover, in the experiment on DSS-induced colitis (vs Negative Control (Group 2)), the clinical score entry is reported as “reduced clinical scores”, the “colon pathology (overall)” value is “overall improvement in colon pathology”, the colon weight result was “reduced colon weight” and the “maximal body weight loss / body weight loss (in words)” value was “significantly reduced”. Besides, in the experiment with DSS-induced colitis (setting [1]), the colon length entry is recorded as “increased colon length”, the gross pathology score entry is on record as “improved” and the histopathology score result is reported as “improved”. Further, the “protection against weight loss” value with TNBS-induced colitis (antibiotic pretreatment alone) was “no effect”. For the same molecule, the “dead or euthanized / group size” value in the experiment on TNBS-induced colitis (following TNBS induction, Positive Control = anti-IL12) is on record as 2/24. The Mortality in the experiment with TNBS-induced colitis (following TNBS induction, Positive Control = anti-IL12, Negative Control 33%) came out at 8%. Besides, the histopathology scores result in the experiment on TNBS-induced colitis (vs Negative Control Group 2, BSC p=0.14) is “not different”. For the same molecule, in the experiment on TNBS-induced colitis (vs Negative Control Group 2, Positive Control = anti-IL12), the clinical scores entry is reported as “not statistically improved”.

The record behind these values is US20180200308A1, “METHODS OF TREATING COLITIS” (priority 2015, published 2018).
